Earlier results, collected in US20150065582A1, “Orally Dissolving Formulations of Memantine” (Forest Laboratories Holdings Limited, priority 2006, published 2015).
Counter-ions that a name gives are not always drawn.

What was measured:
[1] = oral administration of immediate release tablets

Row | SMILES | solubility (classification) | absolute bioavailability [1]
1 | CC12CC3CC(C)(C1)CC(N)(C3)C2 [Memantine HCl] | highly soluble | 
2 | CC12CC3CC(C)(C1)CC(N)(C3)C2 [memantine, 1-amino-3,5-dimethyl adamantane] |  | approximately 100%
